Test results reported in patent publication US20200291018A1, “TAM KINASE INHIBITORS” (SYROS PHARMACEUTICALS, INC., priority 2017, published 2020).

What was measured:
[1] = target: T1, TYRO3 (Homo sapiens, UniProt Q06418); experiment: TR-FRET kinase activity assay, TYRO3; format: biochemical; conditions: ATP at Km, 60 minutes
T1 sequence (Q06418 41-890): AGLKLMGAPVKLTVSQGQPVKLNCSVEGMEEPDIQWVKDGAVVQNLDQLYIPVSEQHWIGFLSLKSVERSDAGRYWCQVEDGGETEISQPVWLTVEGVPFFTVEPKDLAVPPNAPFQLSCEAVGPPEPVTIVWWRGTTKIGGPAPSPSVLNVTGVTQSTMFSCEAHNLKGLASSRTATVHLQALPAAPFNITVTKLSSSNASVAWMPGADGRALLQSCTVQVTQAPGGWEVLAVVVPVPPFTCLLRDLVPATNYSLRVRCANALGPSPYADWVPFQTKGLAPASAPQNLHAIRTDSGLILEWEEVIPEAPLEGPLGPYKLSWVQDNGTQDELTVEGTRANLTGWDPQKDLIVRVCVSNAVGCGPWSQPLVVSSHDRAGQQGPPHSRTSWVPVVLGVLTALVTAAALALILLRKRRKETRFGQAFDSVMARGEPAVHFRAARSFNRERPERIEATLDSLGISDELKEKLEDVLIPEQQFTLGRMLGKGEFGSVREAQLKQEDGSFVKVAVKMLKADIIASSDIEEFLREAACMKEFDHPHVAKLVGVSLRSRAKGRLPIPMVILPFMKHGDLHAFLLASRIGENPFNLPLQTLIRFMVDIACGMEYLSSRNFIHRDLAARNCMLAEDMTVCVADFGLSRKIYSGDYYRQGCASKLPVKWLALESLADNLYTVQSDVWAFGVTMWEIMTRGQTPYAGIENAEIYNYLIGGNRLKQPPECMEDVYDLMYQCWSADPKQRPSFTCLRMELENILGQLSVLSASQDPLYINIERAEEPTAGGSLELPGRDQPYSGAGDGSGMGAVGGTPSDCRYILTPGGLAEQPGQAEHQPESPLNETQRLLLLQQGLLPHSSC
In short: (§1)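 Enzyme, fluorescent-labeled peptide substrate and compound were mixed, then ATP was added at each enzyme's Km. Buffer was 50 mM HEPES pH 7.5, 10 mM MgCl2, 1 mM EGTA, 0.01% Brij 35, 1 mM DTT at RT. After 60 min, EDTA quench and 30 min with Eu-anti-phosphotyrosine-site antibody; TR-FRET read gave IC50.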

[2] = target: T2, FLT3 (Homo sapiens, UniProt P36888); experiment: TR-FRET kinase activity assay, FLT3; format: biochemical; conditions: ATP at Km, 60 minutes
T2 sequence (P36888 27-993): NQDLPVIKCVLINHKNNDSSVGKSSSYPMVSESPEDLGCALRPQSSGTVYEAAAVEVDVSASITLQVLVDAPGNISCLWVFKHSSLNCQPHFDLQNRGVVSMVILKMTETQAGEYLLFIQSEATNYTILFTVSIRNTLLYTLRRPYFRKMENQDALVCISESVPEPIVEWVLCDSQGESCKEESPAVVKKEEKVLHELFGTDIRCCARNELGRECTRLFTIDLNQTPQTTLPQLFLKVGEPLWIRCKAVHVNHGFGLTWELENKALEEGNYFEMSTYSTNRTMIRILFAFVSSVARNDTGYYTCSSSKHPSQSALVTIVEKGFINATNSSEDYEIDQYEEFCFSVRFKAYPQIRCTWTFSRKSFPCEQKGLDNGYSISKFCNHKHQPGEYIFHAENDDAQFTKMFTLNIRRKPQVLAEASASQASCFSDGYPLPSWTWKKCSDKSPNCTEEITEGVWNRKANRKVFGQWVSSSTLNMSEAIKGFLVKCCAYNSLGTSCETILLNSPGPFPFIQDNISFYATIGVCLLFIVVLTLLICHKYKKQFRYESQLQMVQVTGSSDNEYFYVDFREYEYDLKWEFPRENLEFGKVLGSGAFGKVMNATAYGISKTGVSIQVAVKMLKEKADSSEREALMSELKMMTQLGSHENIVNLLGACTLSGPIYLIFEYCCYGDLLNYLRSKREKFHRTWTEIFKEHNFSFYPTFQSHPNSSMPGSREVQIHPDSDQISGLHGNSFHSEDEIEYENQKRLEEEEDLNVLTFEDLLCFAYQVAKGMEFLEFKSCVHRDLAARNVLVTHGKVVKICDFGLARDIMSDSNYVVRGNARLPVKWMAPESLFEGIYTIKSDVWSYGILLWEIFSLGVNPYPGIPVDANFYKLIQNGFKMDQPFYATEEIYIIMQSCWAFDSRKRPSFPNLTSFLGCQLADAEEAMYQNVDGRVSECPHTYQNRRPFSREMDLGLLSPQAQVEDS
In short: as §1

SMILES | IC50 [1] [nM] | IC50 [2] [nM]
COC[C@H](C)Nc1ncc2c(OC3CCOCC3)ncc([C@H]3CC[C@H](O)CC3)c2n1 [Compound 122, (1S,4r)-4-(2-(((S)-1-methoxypropan-2-yl)amino)-5-((tetrahydro-2H-pyran-4-yl)oxy)pyrido[4,3-d]pyrimidin-8-yl)cyclohexan-1-ol] | 100 to 1000 | 1000 to 10000
CCCCNc1ncc2c(OCCOC)ncc([C@H]3CC[C@H](O)CC3)c2n1 [Compound 125] | 1000 to 10000 | ≤ 100
COC[C@H](C)Nc1ncc2c(O[C@H]3CCOC3)ncc([C@H]3CC[C@H](O)CC3)c2n1 [Compound 357] | 100 to 1000 | 1000 to 10000
COC[C@H](C)Nc1ncc2c(OC3CCOCC3)ncc(C3CCC(F)(F)CC3)c2n1 [Compound 358] | 100 to 1000 | 1000 to 10000
COC[C@H](C)Nc1ncc2c(OC3CC(C)(C)N(C(C)=O)C(C)(C)C3)ncc([C@H]3CC[C@H](O)CC3)c2n1 [Compound 361] | 100 to 1000 | 1000 to 10000
COC[C@H](C)Nc1ncc2c(Nc3ccncc3)ncc([C@H]3CC[C@H](O)CC3)c2n1 [Compound 362] | 100 to 1000 | 1000 to 10000
COC[C@H](C)Nc1ncc2c(O[C@@H]3CCN(C)C3)ncc([C@H]3CC[C@H](O)CC3)c2n1 [Compound 366] | 100 to 1000 | 1000 to 10000
C[C@@H](CC(F)(F)F)Nc1ncc2c(OC3C[C@H]4CC[C@@H](C3)N4C)ncc([C@H]3CC[C@H](O)CC3)c2n1 (some centres unmarked) [Compound 370] | ≤ 100 | 100 to 1000
COC[C@H](C)Nc1ncc2c(Nc3ccnc(C)c3)ncc([C@H]3CC[C@H](O)CC3)c2n1 [Compound 372] | 100 to 1000 | 1000 to 10000
Cc1nccc(N2CCC(Oc3ncc([C@H]4CC[C@H](O)CC4)c4nc(N[C@@H](C)CC(F)(F)F)ncc34)CC2)n1 [Compound 375] | ≤ 100 | 100 to 1000
COCCN1C(C)(C)CC(Oc2ncc([C@H]3CC[C@H](O)CC3)c3nc(N[C@@H](C)CC#N)ncc23)CC1(C)C [Compound 376] | ≤ 100 | 1000 to 10000
COCC(=O)N1C(C)(C)CC(Oc2ncc([C@H]3CC[C@H](O)CC3)c3nc(N[C@@H](C)CC(F)(F)F)ncc23)CC1(C)C [Compound 377] | 100 to 1000 | 1000 to 10000
C[C@@H](CC(F)(F)F)Nc1ncc2c(OC3CCN([C@@H]4CCOC4)CC3)ncc([C@H]3CC[C@H](O)CC3)c2n1 [Compound 378] | ≤ 100 | 1000 to 10000
COCCN1C(C)(C)CC(Oc2ncc([C@H]3CC[C@H](O)CC3)c3nc(NC4(C)CC4)ncc23)CC1(C)C [Compound 379] | ≤ 100 | 100 to 1000
COCCN1C(C)(C)CC(Oc2ncc([C@H]3CC[C@H](O)CC3)c3nc(N[C@@H](C)CCO)ncc23)CC1(C)C [Compound 380] | ≤ 100 | 1000 to 10000
COCCN1C(C)(C)CC(Oc2ncc([C@H]3CC[C@H](O)CC3)c3nc(N[C@@H](C)CF)ncc23)CC1(C)C [Compound 381] | ≤ 100 | 1000 to 10000
C[C@@H](CF)Nc1ncc2c(OC3CC(C)(C)N(C)C(C)(C)C3)ncc([C@H]3CC[C@H](O)CC3)c2n1 [Compound 382] | ≤ 100 | 1000 to 10000
C[C@@H](CC(F)(F)F)Nc1ncc2c(OC3CCN([C@H]4CCOC4)CC3)ncc([C@H]3CC[C@H](O)CC3)c2n1 [Compound 383] | ≤ 100 | 1000 to 10000
COC[C@H](C)Nc1ncc2c(O[C@H]3CCN(C)C(C)(C)C3)ncc([C@H]3CC[C@H](O)CC3)c2n1 [Compound 384] | ≤ 100 | 1000 to 10000
COC[C@H](C)Nc1ncc2c(O[C@@H]3CCN(C)C(C)(C)C3)ncc([C@H]3CC[C@H](O)CC3)c2n1 [Compound 385] | ≤ 100 | 1000 to 10000
C[C@@H](CC(F)(F)F)Nc1ncc2c(OC3CC(C)(C)N(C)C(C)(C)C3)ncc([C@H]3CC[C@H](O)CC3)c2n1 [Compound 386] | ≤ 100 | 100 to 1000
COC[C@H](C)Nc1ncc2c(OC3C[C@H](C)N(C)[C@@H](C)C3)ncc([C@H]3CC[C@H](O)CC3)c2n1 (some centres unmarked) [Compound 387] | ≤ 100 | 1000 to 10000
COC[C@H](C)Nc1ncc2c(OC3C[C@@H](C)N(C)[C@H](C)C3)ncc([C@H]3CC[C@H](O)CC3)c2n1 (some centres unmarked) [Compound 388] | ≤ 100 | 1000 to 10000
C[C@@H](CC(F)(F)F)Nc1ncc2c(OC3CCN(S(C)(=O)=O)CC3)ncc([C@H]3CC[C@H](O)CC3)c2n1 [Compound 389] | 100 to 1000 | 1000 to 10000

Second part, the compound after the results:

IC50 [1] [nM] | IC50 [2] [nM] | SMILES
≤ 100 | 1000 to 10000 | CCC(CC)Nc1ncc2c(=O)n(C3CCNCC3)cc([C@H]3CC[C@H](O)CC3)c2n1 [Compound 120]
≤ 100 | ≤ 100 | CCCCNc1ncc2c(NC3CCOCC3)ncc([C@H]3CC[C@H](O)CC3)c2n1 [Compound 124]
≤ 100 | 1000 to 10000 | CCC[C@H](C)Nc1ncc2c(=O)n(C3CCNCC3)cc([C@H]3CC[C@H](O)CC3)c2n1 [Compound 126]
≤ 100 | 100 to 1000 | COCCN1C(C)(C)CC(Oc2ncc([C@H]3CC[C@H](O)CC3)c3nc(N[C@@H](C)CC(F)(F)F)ncc23)CC1(C)C [Compound 355]
≤ 100 | 1000 to 10000 | Cc1ncc([C@H]2CC[C@H](O)CC2)c2nc(N[C@@H](C)CC(F)(F)F)ncc12 [Compound 356]
≤ 100 | 100 to 1000 | CCOc1ncc([C@H]2CC[C@H](O)CC2)c2nc(N[C@@H](C)CC(F)(F)F)ncc12 [Compound 359]
≤ 100 | 100 to 1000 | C[C@@H](CC(F)(F)F)Nc1ncc2c(O[C@H]3C[C@@H](O)C3)ncc([C@H]3CC[C@H](O)CC3)c2n1 [Compound 360]
≤ 100 | 1000 to 10000 | COC[C@H](C)Nc1ncc2c(Nc3cccnc3)ncc([C@H]3CC[C@H](O)CC3)c2n1 [Compound 363]
≤ 100 | 100 to 1000 | C[C@@H](CC(F)(F)F)Nc1ncc2c(O[C@H]3C[C@H](O)C3)ncc([C@H]3CC[C@H](O)CC3)c2n1 [Compound 364]
≤ 100 | 1000 to 10000 | C[C@H](Nc1ncc2c(OC3CCOCC3)ncc([C@H]3CC[C@H](O)CC3)c2n1)C(F)F [Compound 365]
≤ 100 | 100 to 1000 | CC[C@@H](C)Nc1ncc2c(OC3CC(C)(C)N(C)C(C)(C)C3)ncc([C@H]3CC[C@H](O)CC3)c2n1 [Compound 367]
≤ 100 | > 10000 | COC[C@H](C)Nc1ncc2c(O[C@H]3CCN(C)C3)ncc([C@H]3CC[C@H](O)CC3)c2n1 [Compound 368]
≤ 100 | 1000 to 10000 | COCCN1CCC(Oc2ncc([C@H]3CC[C@H](O)CC3)c3nc(N[C@@H](C)CC(F)(F)F)ncc23)CC1 [Compound 369]
≤ 100 | 1000 to 10000 | COC[C@H](C)Nc1ncc2c(OC3C[C@@H](C)N(C)[C@@H](C)C3)ncc([C@H]3CC[C@H](O)CC3)c2n1 (some centres unmarked) [Compound 371]
≤ 100 | 1000 to 10000 | C[C@@H](CC(F)(F)F)Nc1ncc2c(OC3CCN(c4ncccn4)CC3)ncc([C@H]3CC[C@H](O)CC3)c2n1 [Compound 373]
≤ 100 | 1000 to 10000 | COC[C@H](C)Nc1ncc2c(Nc3ccc(C)nc3)ncc([C@H]3CC[C@H](O)CC3)c2n1 [Compound 374]
